PubChem BioAssay AID1259407 (Chemical Carcinogenesis Research Information System (CCRIS), 2018)
Calls of active or inactive are those of the source. How the calls were made is not given here.

Test system: CCRIS mutagenicity, Ames/micronucleus/aberration tests
Test: CCRIS mutagenicity studies
[1] = Test System: AMES SALMONELLA TYPHIMURIUM, Strain/Indicator: TA98, Metabolic Activation: NONE, Method: PREINCUBATION
[2] = Test System: AMES SALMONELLA TYPHIMURIUM, Strain/Indicator: TA100, Metabolic Activation: NONE, Method: PREINCUBATION
[3] = Test System: AMES SALMONELLA TYPHIMURIUM, Strain/Indicator: TA98, Metabolic Activation: NONE, Method: STANDARD PLATE
[4] = Test System: AMES SALMONELLA TYPHIMURIUM, Strain/Indicator: TA100, Metabolic Activation: NONE, Method: STANDARD PLATE

CC(O)C#N (stereo not drawn)
mutagenic call (Test System: AMES SALMONELLA TYPHIMURIUM, Strain/Indicator: TA97, Metabolic Activation: HAMSTER, LIVER, S-9, AROCLOR 1254 (10%), Method: PREINCUBATION): inactive; negative | mutagenic call (Test System: AMES SALMONELLA TYPHIMURIUM, Strain/Indicator: TA97, Metabolic Activation: HAMSTER, LIVER, S-9, AROCLOR 1254 (30%), Method: PREINCUBATION): inactive; negative | mutagenic call (Test System: AMES SALMONELLA TYPHIMURIUM, Strain/Indicator: TA97, Metabolic Activation: NONE, Method: PREINCUBATION): inactive; negative | mutagenic call (Test System: AMES SALMONELLA TYPHIMURIUM, Strain/Indicator: TA97, Metabolic Activation: RAT, LIVER, S-9, AROCLOR 1254 (5%), Method: PREINCUBATION): inactive; negative | mutagenic call (Test System: AMES SALMONELLA TYPHIMURIUM, Strain/Indicator: TA97, Metabolic Activation: RAT, LIVER, S-9, AROCLOR 1254 (10%), Method: PREINCUBATION): inactive; negative | mutagenic call (Test System: AMES SALMONELLA TYPHIMURIUM, Strain/Indicator: TA97, Metabolic Activation: RAT, LIVER, S-9, AROCLOR 1254 (30%), Method: PREINCUBATION): inactive; negative | mutagenic call (Test System: AMES SALMONELLA TYPHIMURIUM, Strain/Indicator: TA98, Metabolic Activation: HAMSTER, LIVER, S-9, AROCLOR 1254 (10%), Method: PREINCUBATION): inactive; negative | mutagenic call (Test System: AMES SALMONELLA TYPHIMURIUM, Strain/Indicator: TA98, Metabolic Activation: HAMSTER, LIVER, S-9, AROCLOR 1254 (30%), Method: PREINCUBATION): inactive; negative | mutagenic call [1]: inactive; negative | mutagenic call (Test System: AMES SALMONELLA TYPHIMURIUM, Strain/Indicator: TA98, Metabolic Activation: RAT, LIVER, S-9, AROCLOR 1254 (10%), Method: PREINCUBATION): inactive; negative | mutagenic call (Test System: AMES SALMONELLA TYPHIMURIUM, Strain/Indicator: TA98, Metabolic Activation: RAT, LIVER, S-9, AROCLOR 1254 (30%), Method: PREINCUBATION): inactive; negative | mutagenic call (Test System: AMES SALMONELLA TYPHIMURIUM, Strain/Indicator: TA100, Metabolic Activation: HAMSTER, LIVER, S-9, AROCLOR 1254 (10%), Method: PREINCUBATION): inactive; negative | mutagenic call (Test System: AMES SALMONELLA TYPHIMURIUM, Strain/Indicator: TA100, Metabolic Activation: HAMSTER, LIVER, S-9, AROCLOR 1254 (30%), Method: PREINCUBATION): inactive; negative | mutagenic call [2]: inactive; negative | mutagenic call (Test System: AMES SALMONELLA TYPHIMURIUM, Strain/Indicator: TA100, Metabolic Activation: RAT, LIVER, S-9, AROCLOR 1254 (5 OR 30%), Method: PREINCUBATION): inactive; negative | mutagenic call (Test System: AMES SALMONELLA TYPHIMURIUM, Strain/Indicator: TA100, Metabolic Activation: RAT, LIVER, S-9, AROCLOR 1254 (10%), Method: PREINCUBATION): inactive; negative | mutagenic call (Test System: AMES SALMONELLA TYPHIMURIUM, Strain/Indicator: TA1535, Metabolic Activation: HAMSTER, LIVER, S-9, AROCLOR 1254 (10%), Method: PREINCUBATION): inactive; negative | mutagenic call (Test System: AMES SALMONELLA TYPHIMURIUM, Strain/Indicator: TA1535, Metabolic Activation: HAMSTER, LIVER, S-9, AROCLOR 1254 (30%), Method: PREINCUBATION): inactive; negative | mutagenic call (Test System: AMES SALMONELLA TYPHIMURIUM, Strain/Indicator: TA1535, Metabolic Activation: NONE, Method: PREINCUBATION): inactive; negative | mutagenic call (Test System: AMES SALMONELLA TYPHIMURIUM, Strain/Indicator: TA1535, Metabolic Activation: RAT, LIVER, S-9, AROCLOR 1254 (10%), Method: PREINCUBATION): inactive; negative | mutagenic call (Test System: AMES SALMONELLA TYPHIMURIUM, Strain/Indicator: TA1535, Metabolic Activation: RAT, LIVER, S-9, AROCLOR 1254 (30%), Method: PREINCUBATION): inactive; negative | mutagenic call (Test System: AMES SALMONELLA TYPHIMURIUM, Strain/Indicator: TA1537, Metabolic Activation: HAMSTER, LIVER, S-9, AROCLOR 1254 (30%), Method: PREINCUBATION): inactive; negative | mutagenic call (Test System: AMES SALMONELLA TYPHIMURIUM, Strain/Indicator: TA1537, Metabolic Activation: RAT, LIVER, S-9, AROCLOR 1254 (30%), Method: PREINCUBATION): inactive; negative

O=[N+]([O-])c1cc2cccc([N+](=O)[O-])c2c2ccccc12
mutagenic call (Test System: AMES SALMONELLA TYPHIMURIUM, Strain/Indicator: TA98(1,8-DNP6), Metabolic Activation: NONE, Method: STANDARD PLATE): active; positive | mutagenic call (Test System: AMES SALMONELLA TYPHIMURIUM, Strain/Indicator: TA98(NR), Metabolic Activation: NONE, Method: STANDARD PLATE): active; positive | mutagenic call [3]: active; positive | mutagenic call [4]: active; positive | mutagenic call (Test System: AMES SALMONELLA TYPHIMURIUM, Strain/Indicator: YG1021, Metabolic Activation: NONE, Method: STANDARD PLATE): active; positive | mutagenic call (Test System: AMES SALMONELLA TYPHIMURIUM, Strain/Indicator: YG1024, Metabolic Activation: NONE, Method: STANDARD PLATE): active; positive | mutagenic call (Test System: AMES SALMONELLA TYPHIMURIUM, Strain/Indicator: YG1026, Metabolic Activation: NONE, Method: STANDARD PLATE): active; positive | mutagenic call (Test System: AMES SALMONELLA TYPHIMURIUM, Strain/Indicator: YG1029, Metabolic Activation: NONE, Method: STANDARD PLATE): active; positive

CC1CC(C(C)C(C)(C)O)O[C@H]2C[C@@]3(C)[C@@H]4CC[C@H]5C(C)(C)C(=O)CC[C@@]56C[C@@]46CC[C@]3(C)[C@@H]12 (stereo partly drawn)
mutagenic call (End Point: IN VITRO MICRONUCLEUS, Test System: HUMAN PERIPHERAL LYMPHOCYTES, Metabolic Activation: NONE): inactive; negative

CCCN(C(=O)CCCl)c1snc2ccccc12
mutagenic call [3]: inactive; negative | mutagenic call (Test System: AMES SALMONELLA TYPHIMURIUM, Strain/Indicator: TA98, Metabolic Activation: S-9, Method: STANDARD PLATE): inactive; negative | mutagenic call [4]: inactive; negative | mutagenic call (Test System: AMES SALMONELLA TYPHIMURIUM, Strain/Indicator: TA100, Metabolic Activation: S-9, Method: STANDARD PLATE): inactive; negative | mutagenic call (Test System: AMES SALMONELLA TYPHIMURIUM, Strain/Indicator: TA1535, Metabolic Activation: NONE, Method: STANDARD PLATE): active; positive | mutagenic call (Test System: AMES SALMONELLA TYPHIMURIUM, Strain/Indicator: TA1535, Metabolic Activation: S-9, Method: STANDARD PLATE): active; positive | mutagenic call (Test System: AMES SALMONELLA TYPHIMURIUM, Strain/Indicator: TA1537, Metabolic Activation: NONE, Method: STANDARD PLATE): inactive; negative | mutagenic call (Test System: AMES SALMONELLA TYPHIMURIUM, Strain/Indicator: TA1537, Metabolic Activation: S-9, Method: STANDARD PLATE): inactive; negative

O=C(/C=C/c1ccccc1)c1ccc([N+](=O)[O-])cc1
mutagenic call [4]: inactive; negative | mutagenic call (Test System: AMES SALMONELLA TYPHIMURIUM, Strain/Indicator: TA100, Metabolic Activation: RAT, LIVER, S-9, AROCLOR 1254, Method: STANDARD PLATE): inactive; negative

NC(=O)N(CCO)N=O
mutagenic call (Test System: E. COLI B, Strain/Indicator: H/R30R, Metabolic Activation: NONE): active; positive | mutagenic call (Test System: E. COLI B, Strain/Indicator: HS30R, Metabolic Activation: NONE): active; positive

N.NC1CCCC1.O=C([O-])CC(O)C(=O)[O-].[Pt+2] (stereo not drawn)
mutagenic call (End Point: IN VIVO MICRONUCLEUS, Test System: BONE MARROW, Species: MOUSE, Strain/Sex: WILD TYPE/MALE, Route: INTRAPERITONEAL): active; positive

COc1ccc2c(cc3c4c(cc5c(c42)OCO5)CCN3C)c1OC
mutagenic call (Test System: AMES SALMONELLA TYPHIMURIUM, Strain/Indicator: TA98, Metabolic Activation: RAT, LIVER, S-9, PHENOBARBITAL AND BETA-NAPHTHOFLAVONE, Method: PREINCUBATION): active; positive | mutagenic call (Test System: AMES SALMONELLA TYPHIMURIUM, Strain/Indicator: TA100, Metabolic Activation: RAT, LIVER, S-9, PHENOBARBITAL AND BETA-NAPHTHOFLAVONE, Method: PREINCUBATION): active; positive

O.O.O=N[O-].O=N[O-].O=N[O-].O=N[O-].[K+].[K+].[Pt]
mutagenic call [1]: inactive; negative | mutagenic call (Test System: AMES SALMONELLA TYPHIMURIUM, Strain/Indicator: TA98, Metabolic Activation: RAT, LIVER, S-9, AROCLOR 1254, Method: PREINCUBATION): inactive; negative | mutagenic call [2]: inactive; negative | mutagenic call (Test System: AMES SALMONELLA TYPHIMURIUM, Strain/Indicator: TA100, Metabolic Activation: RAT, LIVER, S-9, AROCLOR 1254, Method: PREINCUBATION): inactive; negative

ClCc1cccc2cc3ccc4cccc5ccc(c12)c3c45
mutagenic call [3]: active; positive | mutagenic call [4]: active; positive
